Where two headings read alike, the source gives them in different places.
What was measured:
[1] = biological target: T1, NK-1 (Homo sapiens, UniProt P25103); assay: NK1 radioligand binding assay; details: U373 membrane preparation, [125I]Substance P
T1 construct: 30 ul/well of a 2×U373 membrane preparation; endogenous in cells; host or cells: U373 cells (crude membrane preparation)
Description: (§1) NK-1 Binding assay. Crude membrane suspensions were prepared for the NK1 and SERT radioligand binding assays from U373 cells or recombinant HEK-293 cells expressing hSERT, respectively. Cells were harvested from T-175 flasks as follows. The medium is removed from the flasks and the cells rinsed with HBSS without Ca and without Mg. The cells are then incubated for 5-10 minutes in 10 mM Tris-Cl, pH 7.5, 5 mM EDTA before the cells are lifted with a combination of pipetting and scraping, as needed. To prepare membranes, the cell suspension is collected into centrifuge bottles and homogenized for 30 seconds with a Polytron homogenizer. The suspension is centrifuged for 30 min @ 32,000×g, 4° C., then the supernatant is decanted and the pellet resuspended and homogenized in 50 mM Tris-Cl, pH 7.5, 1 mM EDTA for 10 seconds. The suspension is then centrifuged again for 30 min @ 32,000×g, 4° C. The supernatant is decanted and the pellet resuspended in 50 mM Tris-Cl, pH 7.5, 1 mM EDTA and briefly homogenized. A Bradford assay (Bio-rad) is performed and the membrane preparation diluted to 2 mg/ml with 50 mM Tris-Cl, pH 7.5, 1 mM EDTA. Aliquots are prepared, and then frozen and stored at −80° C.
NK1 radioligand binding assay. Compounds are dissolved in 100% DMSO at a concentration 100× the desired highest assay concentration, serially diluted 1:3 in 100% DMSO, and 0.6 ul/well of each solution is dispensed to a Nunc polypropylene, round bottom, 384 well plate. 100% inhibition is defined with 0.6 ul/well of 1 mM L-733,060 (Sigma L-137) dissolved in DMSO. 30 ul/well of a 2×U373 membrane preparation (267 ug/ml in 100 mM Tris-Cl, pH 7.5, 6 mM MgCl2, 0.2% (v/v) Sigma mammalian protease inhibitor cocktail (Sigma P-8340), and 4 ug/ml chymostatin, Sigma C-7268) and 30 ul/well of a 2× radioligand solution (400 pM [^125I]Substance P (Perkin Elmer NEX-190) in 1% (w/v) BSA (Sigma A-2153), 0.1 mg/ml bacitracin, Sigma B-0125) are added to the well and the reaction incubated for 1 hour at room temperature. The contents of the assay plate are then transferred to a Millipore MultiscreenHTS GF/B filter plate which has been pretreated with 0.5% PEI for at least one hour. The plate is vacuum filtered and washed with 7 washes of 100 ul/well of 20 mM Tris-Cl, pH 7.5, 0.5% (w/v) BSA chilled to 4° C. The filtration and washing is completed in less than 90 s. The plates are air-dried overnight, 12 ul/well of MicroScint scintillation fluid added, and the plates counted in a Trilux.
(§2) Data analysis. The raw data are normalized to percent inhibition using control wells defining 0% (DMSO only) and 100% (selective inhibitor) inhibition which are run on each plate. Each plate is run in triplicate, and the concentration response curve thus generated is fit using the four-parameter dose response equation, Y=Bottom+(Top-Bottom)/(1+10̂((LogIC50−X)*HillSlope)) in order to determine the IC50 value for each compound. The radioligand concentration chosen for each assay corresponds to the Kd concentration determined through saturation binding analysis for each assay.

[2] = biological target: T2, hSERT (Homo sapiens, UniProt P31645); assay: SERT radioligand binding assay
T2 construct: expressed in transfected cells; host or cells: HEK-293 cells (crude membrane preparation)
Description: as §1
SERT radioligand binding assay. Compounds are dissolved in 100% DMSO at a concentration 100× the desired highest assay concentration, serially diluted 1:3 in 100% DMSO, and 0.4 ul/well of each solution is dispensed to a Nunc polypropylene, round bottom, 384 well plate. 100% inhibition is defined with 0.4 ul/well of 1 mM fluoxetine (Sigma F-132) dissolved in DMSO. 20 ul/well of a 2×HEK-hSERT membrane preparation (15 ug/ml in 50 mM Tris-Cl, pH 7.5, 120 mM NaCl, 5 mM KCl) and 20 ul/well of a 2× radioligand solution (520 pM [^125I]RTI-55 (Perkin-Elmer NEX-272) in 50 mM Tris-Cl, pH 7.5, 120 mM NaCl, 5 mM KCl) are added to each well and the reaction incubated for 1 hour at room temperature. The contents of the assay plate are then transferred to a Millipore MultiscreenHTS GF/B filter plate which has been pretreated with 0.5% PEI for at least one hour. The plate is vacuum filtered and washed with 7 washes of 100 ul/well of 50 mM Tris-Cl, pH 7.5, 120 mM NaCl, 5 mM KCl chilled to 4° C. The filtration and washing is completed in less than 90 s. The plates are air-dried overnight, 12 ul/well of MicroScint scintillation fluid added, and the plates counted in a Trilux.
as §2

[3] = HEK-hSERT membrane preparation, [125I]RTI-55, Table 1a, single enantiomers, read-out: SERT IC50
[4] = HEK-hSERT membrane preparation, [125I]RTI-55, Table 1, read-out: SERT IC50

T2 sequence (P31645 whole entry): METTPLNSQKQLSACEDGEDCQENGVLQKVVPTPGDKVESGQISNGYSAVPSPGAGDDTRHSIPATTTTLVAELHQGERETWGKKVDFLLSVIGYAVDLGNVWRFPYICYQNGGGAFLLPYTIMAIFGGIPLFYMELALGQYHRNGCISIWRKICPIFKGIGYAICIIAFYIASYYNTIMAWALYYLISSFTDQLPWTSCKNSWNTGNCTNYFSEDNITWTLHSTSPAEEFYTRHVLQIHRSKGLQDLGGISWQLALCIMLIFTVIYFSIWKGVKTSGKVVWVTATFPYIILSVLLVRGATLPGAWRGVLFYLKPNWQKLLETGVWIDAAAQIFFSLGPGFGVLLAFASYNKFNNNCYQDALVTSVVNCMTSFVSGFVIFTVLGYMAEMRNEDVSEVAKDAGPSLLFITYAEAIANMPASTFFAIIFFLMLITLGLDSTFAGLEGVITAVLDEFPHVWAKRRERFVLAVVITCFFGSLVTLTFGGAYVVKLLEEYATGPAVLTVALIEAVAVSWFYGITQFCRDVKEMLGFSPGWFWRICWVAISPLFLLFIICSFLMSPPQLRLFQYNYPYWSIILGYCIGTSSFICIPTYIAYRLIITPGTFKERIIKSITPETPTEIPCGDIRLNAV
T1 sequence (P25103 whole entry): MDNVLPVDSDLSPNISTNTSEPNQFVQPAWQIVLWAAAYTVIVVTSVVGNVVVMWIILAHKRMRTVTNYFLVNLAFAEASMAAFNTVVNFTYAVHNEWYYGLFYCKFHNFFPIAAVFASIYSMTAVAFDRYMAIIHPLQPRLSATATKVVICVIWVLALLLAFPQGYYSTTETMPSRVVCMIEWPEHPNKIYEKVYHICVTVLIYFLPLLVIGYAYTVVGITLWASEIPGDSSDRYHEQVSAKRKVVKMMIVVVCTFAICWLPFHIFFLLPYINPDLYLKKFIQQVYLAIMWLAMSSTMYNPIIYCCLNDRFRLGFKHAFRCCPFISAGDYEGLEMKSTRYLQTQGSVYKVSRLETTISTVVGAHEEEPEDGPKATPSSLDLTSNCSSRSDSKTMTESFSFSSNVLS

SMILES	IC50 ([1]; Table 1) [nM]	IC50 [2, 4] [nM]	IC50 ([1]; Table 1a, single enantiomers) [nM]	other results
CC(OCC1(c2ccc(F)cc2)CCNCC1)c1cc(C(F)(F)F)cc2cccnc12 (single isomer, unassigned) [Example 67]	–	–	> 300	IC50 [2, 3]: 0.01 to 100 nM
CC(OCC1(c2ccc(F)cc2)CCNCC1)c1cc(C(F)(F)F)cc2cccnc12 (single isomer, unassigned) [Example 68]	–	–	0.01 to 100	IC50 [2, 3]: 0.01 to 100 nM
CC(OCC1(c2ccc(F)cc2)CCN(C)CC1)c1cc(C(F)(F)F)cc2cccnc12 (single isomer, unassigned) [Example 69]	–	–	> 300	IC50 ([2]; read-out: SERT IC50, HEK-hSERT membrane preparation, [125I]RTI-55, Table 1a, single enantiomers): 0.01 to 100 nM
CC(OCC1(c2ccc(F)cc2)CCN(C)CC1)c1cc(C(F)(F)F)cc2cccnc12 (single isomer, unassigned) [Example 70]	–	–	0.01 to 100	IC50 [2, 3]: 0.01 to 100 nM
CC(OCC1(c2ccccc2)CCNCC1)c1cc(C(F)(F)F)cc2cccnc12 (single isomer, unassigned) [Example 71]	–	–	0.01 to 100	IC50 [2, 3]: 0.01 to 100 nM
CC(OCC1(c2ccccc2)CCN(C)CC1)c1cc(C(F)(F)F)cc2cccnc12 (single isomer, unassigned) [Example 72]	–	–	> 300	IC50 [2]: 0.01 to 100 nM
CC(OCC1(c2ccccc2)CCN(C)CC1)c1cc(C(F)(F)F)cc2cccnc12 (single isomer, unassigned) [Example 73]	–	–	0.01 to 100	IC50 [2, 3]: 0.01 to 100 nM
CC(OCC1(c2ccccc2)CCN(C)CC1)c1cc(C(F)(F)F)cc2cccnc12 (single isomer, unassigned) [Example 74]	–	–	0.01 to 100	IC50 [2, 3]: 0.01 to 100 nM
Cc1cc(C(C)OCC2(c3ccc(F)cc3)CCN(C)CC2)c2ncccc2c1 (single isomer, unassigned) [Example 75]	–	–	> 300	IC50 [2]: 0.01 to 100 nM
Cc1cc(C(C)OCC2(c3ccc(F)cc3)CCN(C)CC2)c2ncccc2c1 (single isomer, unassigned) [Example 76]	–	–	0.01 to 100	IC50 [2, 3]: 0.01 to 100 nM
CC(OCC1(c2ccc(F)cc2)CCNCC1)c1cc(Br)cc2cccnc12 (single isomer, unassigned) [Example 77]	–	–	0.01 to 100	IC50 [2, 3]: 0.01 to 100 nM
CC(OCC1(c2ccc(F)cc2)CCN(C)CC1)c1cc(Br)cc2cccnc12 (single isomer, unassigned) [Example 78]	–	–	100 to 300	IC50 [2]: 0.01 to 100 nM
CC(OCC1(c2ccc(F)cc2)CCN(C)CC1)c1cc(Br)cc2cccnc12 (single isomer, unassigned) [Example 79]	–	–	0.01 to 100	IC50 [2, 3]: 0.01 to 100 nM
Cc1cc(COCC2(c3ccccc3)CCN(C)CC2)c2ccccc2n1 [Example 2, 2-methyl-4-(((1-methyl-4-phenylpiperidin-4-yl)methoxy)methyl)quinoline]	> 300	–	–	IC50 [2]: 0.01 to 100 nM
Cc1cc(COCC2(c3ccccc3)CCN(C)CC2)nc2ccccc12 [Example 4]	100 to 300	–	–	IC50 [2]: 0.01 to 100 nM
CN1CCC(COCc2ccc3ccccc3n2)(c2ccccc2)CC1 [Example 6]	> 300	0.01 to 100	–	–
CN1CCC(COCc2cc(N)c3ccccc3n2)(c2ccccc2)CC1 [Example 8]	> 300	–	–	IC50 [2]: 0.01 to 100 nM
Cc1ccc2cc(COCC3(c4ccccc4)CCN(C)CC3)ccc2n1 [Example 10]	> 300	0.01 to 100	–	–
COc1ccc2nc(COCC3(c4ccccc4)CCN(C)CC3)ccc2c1 [Example 12]	> 300	–	–	IC50 [2]: 0.01 to 100 nM
FC(F)(F)c1ccc2c(Cl)cc(COCC3(c4ccccc4)CCNCC3)nc2c1 [Example 17, 4-chloro-2-(((4-phenylpiperidin-4-yl)methoxy)methyl)-7-(trifluoromethyl)quinoline]	> 300	0.01 to 100	–	–
CN(C)c1cc(COCC2(c3ccccc3)CCNCC2)nc2cc(C(F)(F)F)ccc12 [Example 18, N,N-dimethyl-2-(((4-phenylpiperidin-4-yl)methoxy)methyl)-7-(trifluoromethyl)quinolin-4-amine]	> 300	0.01 to 100	–	–
CN1CCC(COCc2cc(Br)cc3cccnc23)(c2ccccc2)CC1 [Example 23]	0.01 to 100	0.01 to 100	–	–
N#Cc1ccc(-c2cc(COCC3(c4ccccc4)CCNCC3)c3ncccc3c2)cc1 [Example 24]	> 300	0.01 to 100	–	–

Second part, led by results:

IC50 ([1]; Table 1) [nM]	IC50 [2, 4] [nM]	SMILES	IC50 ([1]; Table 1a, single enantiomers) [nM]	other results
> 300	0.01 to 100	Cc1cc(COCC2(c3ccccc3)CCNCC2)c2ccccc2n1 [Example 1, 2-methyl-4-(((4-phenylpiperidine-4-yl)methoxy)methyl)quinoline]	–	–
100 to 300	0.01 to 100	Cc1cc(COCC2(c3ccccc3)CCNCC2)nc2ccccc12 [Example 3]	–	–
> 300	0.01 to 100	c1ccc(C2(COCc3ccc4ccccc4n3)CCNCC2)cc1 [Example 5]	–	–
> 300	0.01 to 100	Nc1cc(COCC2(c3ccccc3)CCNCC2)nc2ccccc12 [Example 7]	–	–
> 300	0.01 to 100	Cc1ccc2cc(COCC3(c4ccccc4)CCNCC3)ccc2n1 [Example 9]	–	–
> 300	0.01 to 100	COc1ccc2nc(COCC3(c4ccccc4)CCNCC3)ccc2c1 [Example 11]	–	–
100 to 300	0.01 to 100	Brc1cc(COCC2(c3ccccc3)CCNCC2)nc2ccccc12 [Example 13, 4-bromo-2-(((4-phenylpiperidin-4-yl)methoxy)methyl)quinoline]	–	–
> 300	0.01 to 100	N#Cc1cc(COCC2(c3ccccc3)CCNCC2)nc2ccccc12 [Example 14, 2-(((4-phenylpiperidin-4-yl)methoxy)methyl)quinoline-4-carbonitrile]	–	–
> 300	0.01 to 100	N#Cc1ccc(-c2cc(COCC3(c4ccccc4)CCNCC3)nc3ccccc23)cc1 [Example 15, 4-(2-(((4-phenylpiperidin-4-yl)methoxy)methyl)quinolin-4-yl)benzonitrile]	–	–
> 300	0.01 to 100	CN(C)c1cc(COCC2(c3ccccc3)CCNCC2)nc2ccccc12 [Example 16, N,N-dimethyl-2-(((4-phenylpiperidin-4-yl)methoxy)methyl)quinolin-4-amine]	–	–
> 300	0.01 to 100	Cc1ccc2nc(COCC3(c4ccccc4)CCNCC3)cc(C)c2c1 [Example 19, 4,6-dimethyl-2-(((4-phenylpiperidin-4-yl)methoxy)methyl)quinoline]	–	–
> 300	0.01 to 100	Cc1ccc2c(C)cc(COCC3(c4ccccc4)CCNCC3)nc2c1 [Example 20]	–	–
> 300	0.01 to 100	Cc1cccc2nc(COCC3(c4ccccc4)CCNCC3)cc(C)c12 [Example 21]	–	–
0.01 to 100	0.01 to 100	Brc1cc(COCC2(c3ccccc3)CCNCC2)c2ncccc2c1 [Example 22]	–	–
